From patent US9255110B2 (Hoffmann-La Roche Inc., priority 2010, dated 2016) come the findings set out here.

Structures are written as SMILES. Counter-ions that a name gives are not always drawn.

In this test the target is IRAK-4 (Homo sapiens (Human), UniProt Q9NWZ3). Nature of the test: In vitro IRAK-4 kinase assay. The format is biochemical. As to conditions: purified recombinant IRAK-4, 50 uM ATP, 33P peptide phosphorylation. As for the experimental part: Purified recombinant IRAK-4 protein was incubated with 250 uM synthetic peptide ([…]) in 30 ul of kinase buffer including (20 mM MOPS pH7.2, 25 mM beta glycerol phosphate, 5 mM EGTA, 1 mM sodium orthovanadate, 1 mM DTT, 50 uM ATP, 20 mM MgCl2, 10 uCi γ-^33P, 0.1% BSA) for the indicated time. For purified recombinant IRAK-1 protein kinase assay, 50 uM ATP was used. A 25 ul aliquot of the reaction mixture was transferred on to p81 phosphocellulose squares (Upstate Biotechnology, Lake Placid, N.Y.). The assay squares were washed three times with 0.75% phosphoric acid and once with acetone. Enzyme activity was measured by determining the bound radioactivity by liquid scintillation counting.
Sequence of IRAK-4 (Q9NWZ3 whole entry, species assumed): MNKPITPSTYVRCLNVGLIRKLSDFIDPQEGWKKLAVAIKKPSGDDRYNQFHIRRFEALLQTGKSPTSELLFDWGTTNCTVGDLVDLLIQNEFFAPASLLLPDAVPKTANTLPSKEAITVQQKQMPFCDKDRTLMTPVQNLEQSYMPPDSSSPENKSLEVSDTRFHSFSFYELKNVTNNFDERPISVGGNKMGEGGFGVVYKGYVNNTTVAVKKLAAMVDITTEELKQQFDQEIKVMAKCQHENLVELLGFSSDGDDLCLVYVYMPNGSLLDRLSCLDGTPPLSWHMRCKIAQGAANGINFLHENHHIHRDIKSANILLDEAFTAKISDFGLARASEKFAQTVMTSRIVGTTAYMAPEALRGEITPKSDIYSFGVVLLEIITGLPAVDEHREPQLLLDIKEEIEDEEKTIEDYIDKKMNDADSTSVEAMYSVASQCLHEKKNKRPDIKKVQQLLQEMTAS
One may read the IC50 as the midpoint of a concentration-inhibition curve. As for `O=C(Nc1cc(Cl)ccc1OC1CCC(O)CC1)c1cnn2cc(CCCO)cnc12` (stereo not drawn) [Example 178, 6-(3-Hydroxy-propyl)-pyrazolo[1,5-alpha]pyrimidine-3-carboxylic acid [5-chloro-2-(4-hydroxy-cyclohexyloxy)-phenyl]-amide], the IC50 amounted to 9.42 µM.

In the case of `O=C(Nc1cc(CO)ccc1N1CCCCC1)c1cnn2cccnc12` [Example 66, Pyrazolo[1,5-alpha]pyrimidine-3-carboxylic acid (5-hydroxymethyl-2-piperidin-1-yl-phenyl)-amide], the IC50 worked out at 0.199 µM.

Regarding `O=C(Nc1cc(Cl)ccc1-c1ccc(CO)cc1)c1cnn2cccnc12` [Example 68, Pyrazolo[1,5-alpha]pyrimidine-3-carboxylic acid (4-chloro-4′-hydroxymethyl-biphenyl-2-yl)-amide], the IC50 was 0.218 µM.

For the compound `COc1c(C)cc(C)cc1NC(=O)c1cnn2cccnc12` [Example 168, Pyrazolo[1,5-alpha]pyrimidine-3-carboxylic acid (2-methoxy-3,5-dimethyl-phenyl)-amide], the IC50 is 6.52 µM.

Consider `O=C(Nc1cc(Cl)ccc1OC1CCNCC1)c1cnn2cccnc12` [Example 92, Pyrazolo[1,5-alpha]pyrimidine-3-carboxylic acid [5-chloro-2-(piperidin-4-yloxy)-phenyl]-amide hydrochloride], for which the IC50 came out at 0.476 µM.

On to `O=C(Nc1cccc(NCCO)c1N1CCCCC1)c1cnn2cccnc12` [Example 114, Pyrazolo[1,{tildeover (5)}alpha] pyrimidine-3-carboxylic acid [3-(2-hydroxy-ethylamino)-2-piperidin-1-yl-phenyl]-amide], for which the IC50 is 1.03 µM.

`COc1cc(C(=O)NCCO)ccc1NC(=O)c1csc2cncnc12` [Example 122, Thieno[3,2-d]pyrimidine-7-carboxylic acid [4-(2-hydroxy-ethylcarbamoyl)-2-methoxy-phenyl]-amide]: the IC50 turned out to be 1.62 µM.

With `COc1cc(C(=O)NCCCO)ccc1NC(=O)c1cnn2cccnc12` [Example 105, Pyrazolo[1,5-alpha]pyrimidine-3-carboxylic acid [4-(3-hydroxy-propylcarbamoyl)-2-methoxy-phenyl]-amide], the IC50 was found to be 0.64 µM.

In the case of `O=C(Nc1cc(Cl)ccc1Oc1ccccc1)c1cnn2cccnc12` [Example 161, Pyrazolo[1,5-alpha]pyrimidine-3-carboxylic acid (5-chloro-2-phenoxy-phenyl)-amide], the IC50 amounted to 4.65 µM.

Regarding `COc1cc2ncccc2cc1NC(=O)c1csc2cnc(NCCCN)nc12` [Example 50, 2-(3-Amino-propylamino)-thieno[3,2-d]pyrimidine-7-carboxylic acid (7-methoxy-quinolin-6-yl)-amide], the IC50 was found to be 0.101 µM.

As to `COc1cc(-c2ccccc2)c(C)cc1NC(=O)c1cnn2cccnc12` [Example 167, Pyrazolo[1,5-alpha]pyrimidine-3-carboxylic acid (5-methoxy-2-methyl-biphenyl-4-yl)-amide], the IC50 came out at 5.94 µM.

With `O=C(Nc1ccccc1-c1ccccc1)c1cnn2cccnc12` [Example 116, Pyrazolo[1,5-alpha]pyrimidine-3-carboxylic acid biphenyl-2-ylamide], the IC50 stood at 1.22 µM.

For the compound `NCc1ccc(-c2ccc(Cl)cc2NC(=O)c2cnn3cccnc23)cc1` [Example 46, Pyrazolo[1,{tildeover (5)}alpha] pyrimidine-3-carboxylic acid (4′-aminomethyl-4-chloro-biphenyl-2-yl)-amide], the IC50 amounted to 0.081 µM.

Take `O=C(Nc1cc(Cl)ccc1OC1CCC(O)CC1)c1cnn2cc(CO)cnc12` (stereo not drawn) [Example 133, 6-Hydroxymethyl-pyrazolo[1,5-alpha]pyrimidine-3-carboxylic acid [5-chloro-2-(4-hydroxy-cyclohexyloxy)-phenyl]-amide]: the IC50 came out at 2.25 µM.

Regarding `O=C(Nc1cc(Cl)ccc1OCCCO)c1csc2cncnc12` [Example 139, Thieno[3,2-d]pyrimidine-7-carboxylic acid [5-chloro-2-(3-hydroxy-propoxy)-phenyl]-amide], the IC50 worked out at 2.45 µM.

Take `O=C(Nc1cc(Cl)ccc1OC1CCC(O)CC1)c1cnn2cc(Br)cnc12` (stereo not drawn) [Example 61, 6-Bromo-pyrazolo[1,5-alpha]pyrimidine-3-carboxylic acid [5-chloro-2-(4-hydroxy-cyclohexyloxy)-phenyl]-amide]: the IC50 worked out at 0.137 µM.

Turning to `COc1cnc2c(C(=O)Nc3cc(Cl)ccc3N3CCC(CN)CC3)cnn2c1` [Example 71, 6-Methoxy-pyrazolo[1,5-alpha]pyrimidine-3-carboxylic acid [2-(4-aminomethyl-piperidin-1-yl)-5-chloro-phenyl]-amide], the IC50 came out at 0.254 µM.

For `COc1ccccc1NC(=O)c1csc2cncnc12` [Example 169, Thieno[3,2-d]pyrimidine-7-carboxylic acid (2-methoxy-phenyl)-amide], the IC50 came out at 6.56 µM.

`CN(C)c1ccc(Cl)cc1NC(=O)c1cnn2cccnc12` [Example 108, Pyrazolo[1,5-alpha]pyrimidine-3-carboxylic acid (5-chloro-2-dimethylamino-phenyl)-amide]: the IC50 amounted to 0.739 µM.

Turning to `O=C(Nc1cc(Cl)ccc1N1CCC(CO)C1)c1cnn2cccnc12` (stereo not drawn) [Example 106, Pyrazolo[1,5-alpha]pyrimidine-3-carboxylic acid [5-chloro-2-(3-hydroxymethyl-pyrrolidin-1-yl)-phenyl]-amide], the IC50 is 0.65 µM.

In the case of `CNCC1CCN(c2ccc(Cl)cc2NC(=O)c2csc3cncnc23)CC1` [Example 151, Thieno[3,2-d]pyrimidine-7-carboxylic acid [5-chloro-2-(4-methylaminomethyl-piperidin-1-yl)-phenyl]-amide], the IC50 came to 3.54 µM.

As for `O=C(Nc1cc(Cl)ccc1OCc1cccc(O)c1)c1cnn2cccnc12` [Example 141, Pyrazolo[1,5-alpha]pyrimidine-3-carboxylic acid [5-chloro-2-(3-hydroxy-benzyloxy)-phenyl]-amide], the IC50 was 2.63 µM.

Turning to `COc1cc(C(=O)N(C)C)ccc1NC(=O)c1cnn2cccnc12` [Example 172, Pyrazolo[1,5-alpha]pyrimidine-3-carboxylic acid (4-dimethylcarbamoyl-2-methoxy-phenyl)-amide], the IC50 amounted to 7.65 µM.

With `COc1ccc(Cl)cc1NC(=O)c1csc2cnc(NCCO)nc12` [Example 132, 2-(2-Hydroxy-ethylamino)-thieno[3,2-d]pyrimidine-7-carboxylic acid (5-chloro-2-methoxy-phenyl)-amide], the IC50 was 2.24 µM.

Regarding `O=C(Nc1cc2cccnc2cc1OCCCO)c1csc2cncnc12` [Example 58, Thieno[3,2-d]pyrimidine-7-carboxylic acid [7-(3-hydroxy-propoxy)-quinolin-6-yl]-amide], the IC50 turned out to be 0.131 µM.

Turning to `COc1cc(OC)c(NC(=O)c2cnn3cccnc23)cc1Cl` [Example 142, Pyrazolo[1,5-alpha]pyrimidine-3-carboxylic acid (5-chloro-2,4-dimethoxy-phenyl)-amide], the IC50 is 2.74 µM.

With `O=C(Nc1cc(Cl)ccc1CCCCO)c1cnn2cccnc12` [Example 145, Pyrazolo[1,5-alpha]pyrimidine-3-carboxylic acid [5-chloro-2-(4-hydroxy-butyl)-phenyl]-amide], the IC50 worked out at 2.95 µM.
